Data as given in patent publication EP3064205A1, “Therapeutic use of isomeric forms of 2-(4-chlorophenyl)quinolin-4-yl)(piperidin-2-yl)methanol” (Glionova AB, priority 2015, dated 2016).
Where two headings read alike, the source gives them in different places.

Columns and labels:
[1] = Pharmacokinetic evaluation in mice (plasma and brain); type: in vivo, male NMRI mice; conditions: for Kp / half-life / Tmax / Cmax: male, NMRI, mouse; for Kp: brain/plasma, single oral administration of 20 mg/kg
Procedure: Compounds S1 and S2 were formulated at 0.4 mg/mL in 7.5% NMP, 10% Kolliphor in 0.9% NaCl (for i.v. administration) and at 2.0 mg/mL in 0.1% Tween 80, 0.5% Na-CMC in water (for p.o. administration).
The pharmacokinetic properties of S1 and S2 were determined in male NMRI mice (Charles River, Germany) following single intravenous (i.v., tail vein, 2 mg/kg) or per oral (p.o, gavage, 20 mg/kg). Light isoflurane anaesthesia was used at i.v. administration, no anaesthesia was used at p.o. administration. Blood samples were kept on ice after sampling and centrigued at +4 °C, 1800 x g for 5 minutes to prepare plasma. Blood and homogenized brain samples were taken from animals at the following nominal time points: 15, 30, and 60 minutes, and 2, 4, 6, 8, 24, 48, 72 and 144 hours after dosing (n=3 samples/time-point). Blood sampling (400-600 microliters) was performed by orbital plexus collection under isoflurane anaesthesia into EDTA plasma tubes (BD Microtainer K2EDTA). Bioanalytical quantification of S1 and S2 was analysed in plasma and brain samples by a UPLC-MS/MS. Pharmacokinetics were calculated by non-compartmental analysis (NCA) from composite (mean) profiles using Phoenix WinNonlin Professional (v 6.3). Nominal sampling times and dose levels have been used for the NCA calculations. All animals dosed with S1 and S2 were systemically exposed to the test compound. The plasma and brain concentrations were detectable and analysed until 144 h.
Brain sampling was performed after the end of blood sampling at the specified time points following euthanization and skull extraction. Brains were weighed and placed in test tubes and placed on wet ice. 4 mL PBS (pH 7.4) per 1 g of brain tissue was added to the test tube and brains were then homogenized using an Ultra-Turrax T25 homogenisator (Setting 2, 9500 rpm, 10s). The homogenates were frozen at -20° C immediately after homogenization.

Panc-1 cells = experiment: APH cell viability assay, 2D culture; type: cell-based, human; conditions: Panc-1, 2D culture, 30 µM
Description: The following well-characterized human pancreatic ductal adenocarcinoma cell lines (ATCC) were used: HPAF II, BxPC-3, MIA-PaCa2 and Panc-1. These cell lines were generated from patient-derived tumors and are widely used model system to study pancreatic cancer (HPAF II: Kim YW, et al. Pancreas 4: 353-362, 1989; BxPC-3: Tan MH, et al. Cancer Invest. 4: 15-23, 1986; MIA-PaCa2: Yunis AA, et al. Int. J. Cancer 19: 128-135, 1977; Pacn-1: Lieber M, et al. Int. J. Cancer 15: 741-747, 1975).
For 2D culture, cells were seeded on flat bottom 96 well plates (Costar) at a concentration of 2500 cells/well in 100 µl phenol red-free RPMI-F12 medium containing 10% FCS. For 3D culture, cells were seeded according to the description for spheroid preparation in phenol-free medium. On day 4 Vacquinol-1 RS (S1) was added at the indicated final concentrations in an extra volume of 10 µl/well and in 8 replicates for each time point. On day 7, an APH assay (See below) was performed. The viability rate was calculated as a percentage of the untreated cells. All data were expressed as the mean ± SD of at least 8 replicates. To confirm the reliability of the APH assay on 2D culture, cell viability was measured using CellTiter-Glo assay (Promega).
The APH assay, which measures the activity of acidic phosphatase in the cells, was optimized for 3D cultures as follows. Only 70µl of medium was removed in order not to suck up the spheres. Then 60µl of PBS was added per well and 100µl of APH buffer (0.1 M sodium acetate pH 5.2 and 0.1 % triton X-100) containing the substrate (2mg/ml p-nitrophenyl phosphate, final pH 4.8 from Thermo Scientific). After 2 hours incubation for the 2D culture and 5 hours for the 3D culture, 10µl of 1 M NaOH was added to stop the APH activity. Absorbance at 405nm was measured within 10 minutes using a FluoStar OPTIMA plate reader (BMG Labtech). Viability rate was calculated as per cent of CTR untreated cells. All data are expressed as the mean ± SD of at least 8 replicates.

## O[C@H](c1cc(-c2ccc(Cl)cc2)nc2ccccc12)[C@@H]1CCCCN1 [S1, (R)-(2-(4-chlorophenyl)quinolin-4-yl)((S)-piperidin-2-yl)methanol]
[1]; brain, i.v., 2 mg/kg
  Brain AUC last: 52.7 µg·h/mL
  Brain Cmax: 1970 ng/mL
  Brain tlast: 144 h
[1]; brain, p.o., 20 mg/kg
  Brain AUC last: 400 µg·h/mL
  Brain Cmax: 4840 ng/mL
  Brain tlast: 144 h
[1]; po, 20 mg/kg, read-out: exposure ratio AUC(brain/plasma)
  Kp: 1.6
[1]; po, 20 mg/kg, read-out: exposure ratio Cmax(brain/plasma)
  Kp: 2.2
[1]; iv, brain, i.v., 2 mg/kg, read-out: Brain T1/2 (converted)
  half-life: 67 h
[1]; iv, brain, i.v., 2 mg/kg, read-out: Brain tmax
  Tmax: 0.25 h
[1]; iv, plasma, 2 mg/kg
  Cmax: 775 ng/mL
[1]; iv, plasma, i.v., 2 mg/kg, read-out: Plasma T1/2 (converted)
  half-life: 84 h
[1]; iv, plasma, i.v., 2 mg/kg, read-out: Plasma tmax
  Tmax: 4 h
[1]; po, brain, p.o., 20 mg/kg, read-out: Brain tmax
  Tmax: 8 h
[1]; po, plasma, 20 mg/kg
  Cmax: 2210 ng/mL
[1]; po, plasma, p.o., 20 mg/kg, read-out: Plasma tmax
  Tmax: 4 h
[1]; plasma, i.v., 2 mg/kg
  Plasma AUC last: 62 µg·h/mL
  Plasma tlast: 144 h
[1]; plasma, p.o., 20 mg/kg
  Plasma AUC last: 246 µg·h/mL
  Plasma tlast: 144 h
Panc-1 cells; 24h
  decrease in cell viability: 43%
Panc-1 cells; 48h
  decrease in cell viability: 63%
Panc-1 cells; 72h
  decrease in cell viability: 70%
